In PMC10675604, “Cetirizine and Levetiracetam as Inhibitors of Monoacylglycerol Lipase: Investigating Their Repurposing Potential as Novel Osteoarthritic Pain Therapies” (Pharmaceuticals, 2023):

Biological target: T1, monoacylglycerol lipase (MAGL) (Homo sapiens, UniProt Q99685)
T1 construct: gene MGLL
T1 sequence (Q99685 1-303): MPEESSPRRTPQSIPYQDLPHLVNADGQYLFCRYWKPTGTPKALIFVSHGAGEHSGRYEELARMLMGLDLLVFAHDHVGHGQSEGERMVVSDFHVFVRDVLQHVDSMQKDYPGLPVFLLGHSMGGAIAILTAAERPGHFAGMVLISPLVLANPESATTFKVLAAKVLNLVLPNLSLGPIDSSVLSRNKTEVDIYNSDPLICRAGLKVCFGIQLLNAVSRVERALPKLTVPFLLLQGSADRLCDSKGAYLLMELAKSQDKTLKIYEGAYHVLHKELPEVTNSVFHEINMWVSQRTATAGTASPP
Assay: colorimetric MAGL inhibition assay (Cayman kit […], 4-nitrophenyl acetate hydrolysis, […] nm)
Assay type: biochemical

SMILES	IC50 [µM]
CC[C@@H](C(N)=O)N1CCCC1=O [levetiracetam]	3.01
O=C(O)COCCN1CCN(C(c2ccccc2)c2ccc(Cl)cc2)CC1 (centres unmarked) [cetirizine]	9.39
